# In patent publication US6509377B1, “Use of a 2-hydroxy-4-trifluoromethylbenzoic acid derivatives as inhibitors of the activation of the nuclear transcription factor NF-κB” (J. Uriach & Cia, S.A., priority 1999, dated 2003):
# Legend:
# MCP-1 = MCP-1 expression induced by immune complexes in THP-1 cells (ELISA); type: cell-based, human; conditions: 100 μg/ml A-IgG
# Experimental: Human monocytic THP-1 cells (3×10^6 cells/well) were cultured in plastic dishes in RPMI 1640 culture medium supplemented with penicillin (100 U/ml), streptomycin (100 μg/ml), gentamycin (50 μg/ml), glutamine (2 mM) and 2% heat-inactivated fetal calf serum. Cells were cultured in the presence of HTB (2 and 4 mM) or vehicle and were activated with 100 μg/ml immune complex aggregates (A-IgG). The production of soluble MCP-1 was determined by ELISA using a commercially available kit (R&D Systems Inc.; Minneapolis, Minn.). The detection limit of the system was 5 pg/ml.
# NF-κB [1] = assay: Activation of NF-κB induced by LPS in human PBMC (EMSA); type: cell-based; conditions: human PBMCs, HTB 1-3 mM, 1 hour, then LPS 10 μg/ml 10 minutes
# Experimental: Mononuclear cells (PBMC) were obtained from blood of healthy donors from the Hospital de Sant Pau (Barcelona) who had not taken any antiinflammatory drug during a period of not less than 2 weeks before blood extraction. Starting from a volume of about 80 ml of heparinized human blood (10 U/ml), this was diluted (1:1) with PBS (pH 7.4; Dulbecco) without calcium, magnesium nor sodium bicarbonate.
# 15 ml of Ficoll solution (d=1.077 at 20° C.; Biochrom KG) were placed in 50-ml Falcon tubes. To this solution a volume of about 25 ml per tube of the blood previously diluted with PBS was carefully added and the tubes were then centrifuged at 1,200 g for 20 minutes. Mononuclear cells concentrate on a whitish interphase between the plasma and the Ficoll solution. This interphase was collected with a Pasteur pipette and was diluted 1:1 with PBS. It was then centrifuged at 300 g for 10 min. The resulting pellet was resuspended in 50 ml PBS and was again centrifuged at 200 g for 10 min, in order to remove platelet contamination. […]
# Prior to the various treatments, cell viability was determined by the Trypan Blue exclusion assay. […]
# After incubation, PBMCs were washed twice with PBS and the degree of activation (binding to DNA) of the transcription factor NF-κB was determined using the EMSA assay, described in detail in Example 1.
# [2] = Cell viability of 143.98.2 cells (EZ4U); type: cell-based; conditions: human, read-out: Percentage of cell viability
# Experimental: (§1) Several cell lines obtained from the American Type Culture Collection (ATCC) were cultured at 37° C. and under a 5% CO2 atmosphere. Each cell line was grown in an appropriate culture medium and within the exponential phase (Table I).
# (§2) For the cell viability studies 24-well plates were used, where 0.5×10^6 cells/ml (for 24-hour studies), 0.25×10^6 cells/ml (for 48-hour studies) or 0.125×10^6 cells/ml (for 72-hour studies) were incubated. Next, different concentrations of HTB (1-3 mM) were added and cells were incubated for different time periods (37° C., 5% CO2). After incubation, the supernatant from each well was extracted, and cells were washed with culture medium without fetal calf serum. Then, the supernatant was extracted and 200 μl culture medium without fetal calf serum were added to each well. In addition, 20 μl substrate were added to determine cell viability. This method is based on the ability of viable cells to transform the colourless substrate into a coloured substance that is excreted to the supernatant (EZ4U, Biomedica Gmbh.). After incubating cells for 1 hour at 37° C. and 5% CO2, 200 μl supernatant were collected and the absorbance was measured at 450 nm.
# (§3) The absorbance was also determined at 620 nm as a measure of the existing non-specific value.
# [3] = Cell viability of Jurkat cells (EZ4U); type: cell-based; conditions: human, Jurkat cells (acute T cell leukemia), read-out: Percentage of cell viability
# Experimental: as §1, §2, §3
# NF-κB [4] = assay: NF-κB activation in brain cells of post-natal Long Evans black-hooded rats (NMDA lesion); type: in vivo, rat
# Experimental: This study was carried out using post-natal (P9) Long Evans black-hooded rats. Each group consisted of 6 animals subjected to an experimental lesion, plus two control animals of the same age. The experimental lesion was induced by intracortical injection (sensorimotor area) of N-methyl-D-aspartate (NMDA), which causes a marked local neuronal degeneration. Triflusal (30 mg/kg) was administered orally in three doses (from day 7 to 9) every 24 hours. Glial reactivity was induced by NMDA injection at postnatal day 9, one hour after the last triflusal dose. At different times (2-24 h) after this last dose, animals were killed, brains were extracted and cut in a cryostat and sections were processed using immunocytochemical and histochemical techniques to determine NF-κB activation in microglia and astroglia using double staining: NF-κB-lectin and NF-κB-GFPA. In parallel, slices were cut on a vibratome to determine the degree of microglial and astroglial reactivity by histoenzymatic techniques (B. Castellano et al., J.Histochem. Cytochem., 1991, 39(5), 561-568).
structure (smiles),measurement,setting,value
"O=C(O)c1ccc(C(F)(F)F)cc1O [HTB, 2-hydroxy-4-trifluoromethylbenzoic acid]",inhibition of MCP-1 expression induced by immune complexes,MCP-1; 2 mM,complete inhibition
same,inhibition of MCP-1 expression induced by immune complexes,MCP-1; 4 mM,complete inhibition
same,inhibition of the activation of NF-κB induced by LPS,NF-κB [1],markedly inhibits
same,"viability at 0 h, 1 mM","[2]; 143.98.2 cells (osteosarcoma), 1 mM HTB, 0 hours",100%
same,"viability at 2 h, 1 mM","[2]; 143.98.2 cells (osteosarcoma), 1 mM HTB, 2 hours",100%
same,"viability at 5 h, 1 mM","[2]; 143.98.2 cells (osteosarcoma), 1 mM HTB, 5 hours",100%
same,"viability at 24 h, 1 mM","[2]; 143.98.2 cells (osteosarcoma), 1 mM HTB, 24 hours",93.9%
same,"viability at 48 h, 1 mM","[2]; 143.98.2 cells (osteosarcoma), 1 mM HTB, 48 hours",83.2%
same,"viability at 72 h, 1 mM","[2]; 143.98.2 cells (osteosarcoma), 1 mM HTB, 72 hours",50.4%
same,"viability at 0 h, 3 mM","[2]; 143.98.2 cells (osteosarcoma), 3 mM HTB, 0 hours",100%
same,"viability at 2 h, 3 mM","[2]; 143.98.2 osteosarcoma cells, 3 mM HTB, 2 hours",98.1%
same,"viability at 5 h, 3 mM","[2]; 143.98.2 osteosarcoma cells, 3 mM HTB, 5 hours",82.7%
same,"viability at 24 h, 3 mM","[2]; 143.98.2 osteosarcoma cells, 3 mM HTB, 24 hours",52.2%
same,"viability at 48 h, 3 mM","[2]; 143.98.2 osteosarcoma cells, 3 mM HTB, 48 hours",16.1%
same,"viability at 0 h, 1 mM","[3]; 1 mM HTB, 0 hours",100%
same,"viability at 2 h, 1 mM","[3]; 1 mM HTB, 2 hours",100%
same,"viability at 5 h, 1 mM","[3]; 1 mM HTB, 5 hours",76.8%
same,"viability at 24 h, 1 mM","[3]; 1 mM HTB, 24 hours",11.3%
same,"viability at 48 h, 1 mM","[3]; 1 mM HTB, 48 hours",3.6%
same,"viability at 72 h, 1 mM","[3]; 1 mM HTB, 72 hours",1.6%
same,"viability at 0 h, 3 mM","[3]; 3 mM HTB, 0 hours",100%
same,"viability at 2 h, 3 mM","[3]; 3 mM HTB, 2 hours",100%
same,"viability at 5 h, 3 mM","[3]; 3 mM HTB, 5 hours",62.6%
same,"viability at 24 h, 3 mM","[3]; 3 mM HTB, 24 hours",6.2%
same,"viability at 48 h, 3 mM","[3]; 3 mM HTB, 48 hours",5.4%
"CC(=O)Oc1cc(C(F)(F)F)ccc1C(=O)O [triflusal, 2-Acetyloxy-4-trifluoromethylbenzoic acid, reference compound]",NF-κB activation in astroglial and microglial cells after NMDA excitotoxic lesion,NF-κB [4]; 30 mg/kg p.o. pretreatment,completely inhibited
same,basal (constitutive) NF-κB activation in cortical neurons of control animals,"NF-κB [4]; triflusal 30 mg/kg orally, three doses every 24 hours",inhibited
